Results from PMC9071130, “Functional analysis of LFRFamide signaling in Pacific abalone, Haliotis discus hannai” (PLoS ONE, 2022).

Key:
[1] = test system: Hdh-sNPFR; experiment: SRE-Luc reporter activation in Hdh-sNPFR-transfected HEK293 cells; type: cell-based, Haliotis discus hannai; details: peptide 10^−6 M, 6 h, n = 3
Protocol: (§1) HEK293 cells were grown in monolayer culture in Dulbecco’s modified Eagle medium (Gibco, Loughborough, UK) with 10% fetal bovine serum (HyClone, GE Healthcare, Chicago, IL, USA) and 1% penicillin/streptomycin (Invitrogen, Carlsbad, CA, USA) at 37°C, 5% CO2. HEK293 cells were seeded in 24-well plates and the transfection was performed using a formulated polyethylenimine solution (Sigma-Aldrich, St. Louis, MO, USA) as previously described. […] The cells were harvested with a cell lysis buffer (Promega, Madison, WI, USA) and luciferase activities were assayed using a microplate luminometer (Berthold, Bad Wildbad, Germany) and normalized by β-galactosidase values detected on a microplate reader (Tecan, Männedorf, Switzerland) at 405 nm.
(§2) Fig 5 Effect of LFRFa peptides on luciferase reporter activities in Hdh-sNPFR-expressing HEK293 cells. […] Intracellular cAMP accumulation was measured by CRE-Luc reporter activities in Hdh-sNPFR- or maternal plasmid pcDNA3-transfected HEK293 cells. The relative activities were determined in response to 10^−5 M of FKN and 10^−6 M of peptide as indicated. […]

[2] = test system: Hdh-sNPFR; experiment: CRE-Luc reporter activation in Hdh-sNPFR-transfected HEK293 cells; type: cell-based, Haliotis discus hannai; details: peptide 10^−6 M, 6 h, no forskolin, n = 3
Protocol: as §1, §2

[3] = test system: Pacific abalone; details: injection of NPF peptide; earlier paper of the authors; cited from earlier work
From the text: Along with insect sNPFs, LFRFa peptides convert feeding motor programs from ingestive to egestive, depress feeding muscle contractions in Aplysia californica, and increase rectal contractions in Sepia officinalis.

[4] = test system: Hdh-sNPFR; experiment: Internalization of HA-tagged Hdh-sNPFR in HEK293 cells (immunocytochemistry, confocal microscopy); type: cell-based, Haliotis discus hannai; details: HEK293 cells with HA-tagged Hdh-sNPFR; peptide 10^−6 M; 5 and 30 min
Protocol: To detect Hdh-sNPFR expression, HEK293 cells were seeded on poly-D-lysine hydrobromide (Sigma-Aldrich)-coated coverslips in 24-well plates. The Hdh-sNPFR expression plasmid was transfected into HEK293 cells as described above. At approximately 30 h post-transfection, the cells were treated with LFRFa peptides and NPF for 5 min and 30 min, respectively. The cells were fixed with 4% paraformaldehyde for 10 min, followed by treatment with 1% bovine serum albumin in phosphate-buffered saline with 0.1% Tween 20 (PBST) for 30 min at room temperature to block non-specific binding. The HEK293 cells were treated with a monoclonal HA primary antibody (1:5000 dilution; H9658, Sigma-Aldrich) in PBST at 4°C for 16 h. After washing with PBST three times for 10 min each, the cells were treated with a secondary antibody [anti-mouse IgG (H+L), F(ab’)2Fragment (AlexaFluor 488 Conjugate), 1:2000 dilution; Cell Signaling, Danvers, MA, USA] in PBST at room temperature for 1 h in a light-blocked chamber. After washing with PBST three times for 10 min each, the cells were mounted with a mounting medium including DAPI (Abcam, Cambridge, UK). The expression of Hdh-sNPFR was monitored with a confocal laser-scanning microscope (FV3000, Olympus, Tokyo, Japan).
Fig 7 Subcellular localization and internalization of Hdh-sNPFR. […]

QDAMLAPPDRPSEFRSPDQLRQYLKALNEYYAIVGRPRF-NH2 [NPF, Pacific abalone neuropeptide F, 39 amino acids, amidated, used as comparison peptide]
Activation of SRE-Luc reporter [1]: did not activate | Activation of CRE-Luc reporter [2]: did not activate | Food consumption in Pacific abalone after NPF injection [3]: increased food consumption | Internalization of Hdh-sNPFR from cell membrane to cytoplasm [4]: did not undergo redistribution from the cell surface to the cytoplasm
